Measured values published in PubChem BioAssay AID330 (DTP/NCI, 2004).
Toxic doses and inconclusive results are not listed. The calls were made as follows: active = survival T/C of 150% or more; inactive = T/C below 125% in these data.

Test system: P388 leukemia ip, CD2F1 mice, survival T/C
Experiment: NCI In Vivo Anticancer Drug Screen. Data for tumor model P388 Leukemia (intraperitoneal) in CD2F1 (CDF1) mice
Details: endpoint: median survival time, higher = longer survival
How it was run: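 Mice carrying the transplanted tumor received test compound or vehicle. Survival was recorded in each group, and the value is the treated-group measurement divided by that of the vehicle-treated control group.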

Measured: T/C

O=C1C=C(Br)C(=O)C(Br)=C1
inactive: dose: 1.56 mg/kg/injection, schedule: Q01DX009 (ip), vehicle: distilled water + Tween-80 101 % of control | dose: 3.13 mg/kg/injection, schedule: Q01DX009 (ip), vehicle: distilled water + Tween-80 95 % of control | dose: 6.25 mg/kg/injection, schedule: Q01DX009 (ip), vehicle: distilled water + Tween-80 100 % of control

CCOC(=O)C(c1ccccc1)C(NC(C)=O)(C(=O)OCC)C(=O)OCC (stereo not drawn)
inactive: dose: 60.0 mg/kg/injection, schedule: Q01DX005 (ip), vehicle: saline with Tween-80 102 % of control | dose: 120.0 mg/kg/injection, schedule: Q01DX005 (ip), vehicle: saline with Tween-80 102 % of control | dose: 240.0 mg/kg/injection, schedule: Q01DX005 (ip), vehicle: saline with Tween-80 105 % of control

O=C(O)CCC(CS)C(=O)O (stereo not drawn)
inactive: dose: 0.5 mg/kg/injection, schedule: Q01DX005 (ip), vehicle: saline 100 % of control | dose: 1.0 mg/kg/injection, schedule: Q01DX005 (ip), vehicle: saline 100 % of control | dose: 2.0 mg/kg/injection, schedule: Q01DX005 (ip), vehicle: saline 100 % of control | dose: 4.0 mg/kg/injection, schedule: Q01DX005 (ip), vehicle: saline 98 % of control | dose: 8.0 mg/kg/injection, schedule: Q01DX005 (ip), vehicle: saline 98 % of control | dose: 16.0 mg/kg/injection, schedule: Q01DX005 (ip), vehicle: saline 112 % of control | dose: 32.0 mg/kg/injection, schedule: Q01DX005 (ip), vehicle: saline 100 % of control | dose: 64.0 mg/kg/injection, schedule: Q01DX005 (ip), vehicle: saline 96 % of control | dose: 128.0 mg/kg/injection, schedule: Q01DX005 (ip), vehicle: saline 89 % of control

O=C(O)Cn1ccnc1[N+](=O)[O-]
inactive: dose: 12.5 mg/kg/injection, schedule: Q01DX009 (ip), vehicle: distilled water + Tween-80 100 % of control | dose: 25.0 mg/kg/injection, schedule: Q01DX009 (ip), vehicle: distilled water + Tween-80 100 % of control | dose: 50.0 mg/kg/injection, schedule: Q01DX009 (ip), vehicle: distilled water + Tween-80 118 % of control | dose: 100.0 mg/kg/injection, schedule: Q01DX009 (ip), vehicle: distilled water + Tween-80 90 % of control | dose: 200.0 mg/kg/injection, schedule: Q01DX009 (ip), vehicle: distilled water + Tween-80 109 % of control

CCCc1[nH]n(-c2ccccc2)c(=O)c1N=Nc1cccc(C(F)(F)F)c1
inactive: dose: 50.0 mg/kg/injection, schedule: Q01DX009 (ip), vehicle: saline 93 % of control | dose: 100.0 mg/kg/injection, schedule: Q01DX009 (ip), vehicle: saline 96 % of control | dose: 200.0 mg/kg/injection, schedule: Q01DX009 (ip), vehicle: saline 90 % of control
